# Experimental data reported in patent US20220313634A1, “AGENT FOR THE PROPHYLACTIC AND/OR SUPPORTIVE THERAPEUTIC TREATMENT OF PARKINSON'S DISEASE” (priority 2017, published 2022).
# System: Parkinson's patients
# Assay: Patient studies of butyric acid/butyrate given with physician-directed medication
# Format: in vivo, human
# Protocol: The effect of butyric acid/butyrate was investigated in patient studies in which more than 1,000 test subjects have participated for at least one year each. A total amount of 6 g butyric acid or butyrate (as salt) was administered together with the physician-directed medication (levodopa etc.) in three daily doses with meals in the morning, at noon and in the evening.
# This is especially important because the usual medication for Parkinson's patients, not only with levodopa, can lead to considerable side effects such as dizziness, nausea, tachyarrhythmia, psychosis, dyskinesia and circulatory problems.
smiles,measurement,setting,value
"CCCC(=O)O [butyric acid/butyrate, butyric acid]","general condition, in particular with respect to the motor functions","more than 1,000 test subjects, at least one year each, total 6 g butyric acid or butyrate (as salt) in three daily doses with meals, together with levodopa etc.",Significant improvements
same,reduction of the amount of dopamine used by Parkinson's patients,patients treated with butyric acid/butyrate,at least 50%
same,"reduction of the amount of dopamine used by Parkinson's patients, in some cases","patients treated with butyric acid/butyrate, in some cases",up to 90%
